Experiment [1] concerns Pantetheinase (vanin). Nature of the experiment: Human Whole Blood assay. The experiment is classed as cell-based. The note with it: formation of pantothenic acid after pantethine supplementation, RapidFire MS, read-out: HWB IC50. Here is the method:
Human Whole Blood assay: Pantetheinase (vanin) converts panteheine into pantothenic acid and cysteamine. Accordingly, in the described protocol vanin activity is quantified by formation of pantothenic acid after pantetheine supplementation via pantethine. The assay is applicable to identify vanin inhibitors. Compound stocks were dissolved in DMSO at 10 mM. Further dilutions were performed in RPMI 1640 medium (Gibco, #A-10491-01) and final concentrations in the assay were 0.032 nM-500 nM.
Human blood was drawn into a blood bag (1% heparin, 50 I.E./mL). Blood was aliquoted into cavities of 96-deep-well plates at 290 μL and mixed with 10 μL compound solution or vehicle (30 sec at 1400 rpm on a shaker). Equilibration followed at room temperature, 250 rpm and for 30 min. The assay was started by adding 10 μL of substrate solution (20 μM pantethine in 1 mM DTT, 0.0025% Brij-35, 50 mM HEPES, pH7.5) to each well, except for some blank wells which received […] substrate buffer (1 mM DTT, 0.0025% Brij-35, 50 mM HEPES, pH7.5) only. Samples were thoroughly shaken (30 sec, 1400 rpm) and reaction was allowed to take place at room temperature, 250 rpm and for 5 min. The reaction was stopped by addition of a vanin tool inhibitor in excess (BI-1 total conc. 10 μM). Centrifugation of the plate followed at 4° C., 665 G for 10 min. Then the blood plasma samples (100 μL) were transferred into another 96-deep-well plate and proteins were precipitated (5 min on ice) by adding 100 μL of ice cold precipitation solution (1 μM labelled pantothenic acid (di-β-alanine-13C6,15N2 calcium salt, Sigma, #705837) in acetonitrile). Afterwards the plate was centrifuged (4° C., 3220 G, 10 min) and supernatants (50 μL) were collected into another 96-deep-well plate and mixed (10 sec, 1400 rpm) with 150 μL ice cold formic acid (0.1%, Carl Roth GmbH+Co.KG, #CP03.1). The formation of pantothenic acid is detected by RapidFire Mass Spectrometry. A TripleQuad 6500+ (ABSciex, Germany) was equipped with an LC-1290 system, a RapidFire autosampler (Agilent, Germany) and a C18 cartridge Type C 12 μL (Agilent Cat #G9526-80000). Mobile phase A was consisting of 0.09% formic acid and 0.01% trifluoroacetic acid in water and mobile phase B of 0.09% formic acid and 0.01% trifluoroacetic acid in acetonitrile/methanol/water=47.5/47.5/5.

Experiment [2] has as its target FLAG-tagged Vanin-1 (AA 22-493, T26I) (Homo sapiens (Human), UniProt O95497, T26I). Put plainly: Vanin-1 enzymatic assay. The experiment is classed as biochemical. Conditions: formation of pantothenic acid from D-pantethine (3 μM), RapidFire MS; geometric mean in case of multiple measurements; read-out: VNN 1 IC50. On the procedure: The test compounds are dissolved in 100% DMSO at a concentration of 10 mM and in a first step diluted in DMSO to a concentration of 5 mM, followed by serial dilution steps in 100% DMSO. Dilution factor and number of dilution steps may vary according to needs. Typically 8 different concentrations by 1:5 dilutions are prepared, a further intermediate dilutions of the substances is carried out with assay buffer resulting in 1% final DMSO concentration in the assay.
0.1 nM of FLAG-tagged Vanin-1 (AA 22-493, T26I, produced internally) and test compounds are incubated at room temperature for 20 minutes in assay buffer (1 mM DTT, 0.0025% Brij-35, 50 mM HEPES, pH7.5). D-Pantethine (Sigma, Cat #P2125-5G) in assay buffer is added (final concentration 3 μM) and incubated for additional 30 minutes at room temperature. Total assay volume typically is 40 μl but might be adjusted according to needs. Reaction is stopped by adding equal volume of stop solution as the reaction mixture to reach 100 nM HD-pantothenic acid (as an internal standard) and 1% TFA. Assay plates are centrifuged for 2 minutes and the formation of pantothenic acid is detected by RapidFire Mass Spectrometry (mobile phase A: 0.1% formic acid and 0.01% trifluoroacetic acid in water; mobile phase B: 47.5% acetonitrile, 47.5% methanol, 0.1% formic acid and 0.01% trifluoroacetic acid in water) using a C18, 12 μL cartridge (Agilent Cat #G9205A).
The values given in Table I result from measurements of one or more samples. In case of multiple measurements the geometric mean values are given.

This is an account of results in patent publication US10864201B2, “Heteroaromatic compounds as Vanin inhibitors” (Boehringer Ingelheim International GmbH, priority 2018, dated 2020).

The term IC50 denotes the concentration at which inhibition is half-maximal.

Chain of FLAG-tagged Vanin-1 (AA 22-493, T26I) (O95497 22-493 T26I): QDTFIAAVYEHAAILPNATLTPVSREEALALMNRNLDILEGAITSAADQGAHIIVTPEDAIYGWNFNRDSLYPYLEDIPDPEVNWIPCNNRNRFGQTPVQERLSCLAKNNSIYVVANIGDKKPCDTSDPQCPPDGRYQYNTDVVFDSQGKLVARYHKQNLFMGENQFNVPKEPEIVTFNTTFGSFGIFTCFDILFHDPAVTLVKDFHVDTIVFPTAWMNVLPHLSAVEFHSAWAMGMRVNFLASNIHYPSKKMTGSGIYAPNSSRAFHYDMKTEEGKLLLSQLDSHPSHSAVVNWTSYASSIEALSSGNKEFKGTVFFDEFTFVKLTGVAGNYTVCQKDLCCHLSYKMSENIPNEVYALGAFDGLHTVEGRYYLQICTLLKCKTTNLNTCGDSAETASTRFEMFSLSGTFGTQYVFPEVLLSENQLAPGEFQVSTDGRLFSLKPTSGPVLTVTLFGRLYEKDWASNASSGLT

Turning to `C[C@]1(c2cccc(F)c2)Cc2cc(C(=O)N3CC[C@H](N4CCCC4=O)C3)cnc2N1` [Example 4.4], the IC50 in experiment [1] came out at 2.1 nM; in experiment [2] it was 0.1 nM.
`C[C@]1(c2ccc(F)cc2)Cc2cc(C(=O)N3CCC4(CCOCC4)C3)cnc2N1` [Example 5.1, 2-[(2R)-2-(4-Fluorophenyl)-2-methyl-1H,2H,3H-pyrrolo[2,3-b]pyridine-5-carbonyl]-8-oxa-2-azaspiro[4.5]decane]: the values for the IC50 in experiment [1] and in experiment [2] were 3.6 nM and 0.4 nM, respectively.
In the same order, the values of `C[C@]1(c2ccc(F)cc2)Cc2cc(C(=O)N3CC[C@H](N4CCOC4=O)C3)cnc2N1` [Example 5.2] are 1.5 nM and 0.1 nM.
`C[C@]1(c2ccc(F)cc2)Cc2cc(C(=O)N3CC[C@H](N4CCCC4=O)C3)cnc2N1` [Example 5.3]: the figures for the IC50 in experiment [1] and in experiment [2] were 1.5 nM and 0.1 nM, respectively.
With `CN(c1ncccn1)[C@H]1CCN(C(=O)c2cnc3c(c2)C[C@](C)(c2ccc(F)cc2)N3)C1` [Example 5.5], the IC50 in experiment [1] stood at 17.2 nM; in experiment [2], 0.2 nM.
On to `C[C@]1(c2ccc(F)cc2)Cc2cc(C(=O)N3CC4(CCOCC4)C3)cnc2N1` [Example 5.6], for which the IC50 came to 10.3 nM in experiment [1] and 0.6 nM in experiment [2].
In the case of `CC(=O)N(C)[C@H]1CCN(C(=O)c2cnc3c(c2)C[C@](C)(c2ccc(F)cc2)N3)C1` [Example 6, N-[(3S)-1-[(2R)-2-(4-Fluorophenyl)-2-methyl-1H,2H,3H-pyrrolo[2,3-b]lpyridine-5-carbonyl]-pyrrolidin-3-yl]-N-methylacetamide], the IC50 in experiment [1] amounted to 1.9 nM; in experiment [2] it was 0.2 nM.
In the same order, the values of `CC(=O)N(C)[C@H]1CCN(C(=O)c2cnc3c(c2)C[C@](C)(c2cccc(Cl)c2)N3)C1` [Example 7.2] are 2 nM and 0.1 nM.
For `CC(=O)N(C)[C@H]1CCN(C(=O)c2cnc3c(c2)C[C@@](C)(c2cccc(Cl)c2)N3)C1` [Example 7.3], the results for the IC50 in experiment [1] and in experiment [2] were 424 nM and 18.9 nM, respectively.
Consider `C[C@]1(c2cccc(Cl)c2)Cc2cc(C(=O)N3CC[C@H](N4CCOC4=O)C3)cnc2N1` [Example 7.4], for which the figures for the IC50 in experiment [1] and in experiment [2] were 1.9 nM and 0.1 nM, respectively.
In the same order, the values of `C[C@]1(c2ccc(Cl)cc2)Cc2cc(C(=O)N3CC[C@H](N4CCOC4=O)C3)cnc2N1` [Example 8.2] are 2.6 nM and 0.1 nM.
In the same order, the values of `C[C@]1(c2ccc(Cl)cc2)Cc2cc(C(=O)N3CC[C@H](N4CCCC4=O)C3)cnc2N1` [Example 8.3] are 3.8 nM and 0.1 nM.
In the same order, the values of `CC(=O)N(C)[C@H]1CCN(C(=O)c2cnc3c(c2)C[C@](C)(c2ccc(Cl)cc2)N3)C1` [Example 9.1, N-[(3S)-1-[(2R)-2-(4-Chlorophenyl)-2-methyl-1H,2H,3H-pyrrolo[2,3-b]pyridine-5-carbonyl]pyrrolidin-3-yl]-N-methylacetamide] are 3 nM and 0.1 nM.
With `CC(=O)N(C)[C@H]1CCN(C(=O)c2cnc3c(c2)C[C@](C)(c2ccccc2)N3)C1` [Example 9.3], the results for the IC50 in experiment [1] and in experiment [2] were 2.1 nM and 0.2 nM, respectively.
In the same order, the values of `CC1(C)CCc2cc(C(=O)N3CC4(CCOCC4)C3)cnc2N1` [Example 11.2] are 4.5 nM and 0.3 nM.
As to `CN(c1ncccn1)[C@H]1CCN(C(=O)c2cnc3c(c2)CCC(C)(C)N3)C1` [Example 11.3], the IC50 in experiment [1] is 2.9 nM; in experiment [2], 0.2 nM.
In the same order, the values of `CN(C(=O)C1(C)CCC1)[C@H]1CCN(C(=O)c2cnc3c(c2)CCC(C)(C)N3)C1` [Example 11.4] are 11.4 nM and 0.9 nM.
In the same order, the values of `CC(=O)N(C)[C@H]1CCN(C(=O)c2cnc3c(c2)CCC(C)(C)N3)C1` [Example 11.6] are 12.6 nM and 0.5 nM.
In the same order, the values of `CC1(C)CCc2cc(C(=O)N3CC[C@H](N4CCCC4=O)C3)cnc2N1` [Example 11.8] are 5.2 nM and 0.7 nM.
As to `CN(C(=O)C1CC1)[C@H]1CCN(C(=O)c2cnc3c(c2)CCC(C)(C)N3)C1` [Example 11.9], the results for the IC50 in experiment [1] and in experiment [2] were 3.5 nM and 0.7 nM, respectively.
Consider `CN(C(=O)C1CCC1)[C@H]1CCN(C(=O)c2cnc3c(c2)CCC(C)(C)N3)C1` [Example 11.10], for which the IC50 worked out at 10.6 nM in experiment [1] and 0.6 nM in experiment [2].
In the same order, the values of `CN(C(=O)C1CC(F)(F)C1)[C@H]1CCN(C(=O)c2cnc3c(c2)CCC(C)(C)N3)C1` [Example 11.11] are 6.9 nM and 0.5 nM.
Take `CCC1(C)CCc2cc(C(=O)N3CC[C@H](N(C)C(C)=O)C3)cnc2N1` (stereo partly drawn) [Example 11.12]: the IC50 in experiment [1] came to 5.7 nM; in experiment [2] it was 0.5 nM.
In the same order, the values of `CC(=O)N(C)[C@H]1CCN(C(=O)c2cnc3c(c2)CCC(C)(c2ccccc2)N3)C1` (stereo partly drawn) [Example 12.2] are 8.2 nM and 0.3 nM.
